Laboratory results taken from PMC10606833, “A Comprehensive Study on the Chemical Characterization and Neuroprotective Evaluation of Pracaxi Nuts Extracts Obtained by a Sustainable Approach” (Foods, 2023).

What was measured:
[1] = ROS scavenging capacity, oxygen radical absorbance capacity (ORAC) assay; format: biochemical; settings: optimized PLE extracts and reference standard (Table 2)
Description: (§1) The ROS scavenging capacity of the PLE extracts obtained from pracaxi nuts cake was measured using the oxygen radical absorbance capacity (ORAC) assay previously described. Ascorbic acid and 10% EtOH (v/v) were used as reference standard and blank control solutions, respectively. Complementary, the RNS scavenging capacity was estimated referring to the nitric oxide (NO) radical scavenging assay. Ascorbic acid was used as the reference standard and 25% EtOH was used as blank control solution. The AChE and BChE inhibitory activities of pracaxi nuts cake PLE extracts were estimated according to the fluorescent enzyme kinetic method described by Sanchez-Martinez et al.. […] Finally, the LOX inhibitory activity of pracaxi nuts cake PLE extracts was determined as described in [26], with slight modifications.

[2] = RNS scavenging capacity, nitric oxide (NO) radical scavenging assay; format: biochemical; settings: optimized PLE extracts and reference standard (Table 2)
Description: as §1

Q: With `O=C1O[C@H]([C@@H](O)CO)C(O)=C1O` [Ascorbic acid, ascorbic acid] as the compound, how does the “ROS (IC50)” value [1] read?
A: 3.2 ± 0.2 µg/mL

Q: What about the “RNS (IC50)” value [2] of the same compound?
A: 1120 ± 16 µg/mL
